In experiment [1] the test system is Petroselinum crispum cells. As to the kind of experiment: Oxygen transfer rate (RAMOS) in suspension cells treated with substance and then with the elicitor Pep13. In kind it is cell-based. Particulars: 200 μM 72 hours after inoculation; for oxygen transfer rate in comparison to untreated cells and to cells only treated with Pep13 (specificity): 1 nM Pep13 96 hours after inoculation, FIG. 2. As to the method:
12.5 ml of a suspension of Petroselinum crispurn cells were inoculated in 250 ml shaking flasks containing 37.5 ml of modified Gamborg B5 medium and cultured at a temperature of 25° C. at a shaking frequency of 180 U/min and a shaking diameter of 5 cm in a RAMOS device (HiTec Zang, Herzogenrath). During the culture the oxygen partial pressure of the gas phase in the head space of the flask was measured and the oxygen transfer rate was calculated therefrom.
In yet another experiment, the cells were treated with 200 μM salicylic acid 72 hours after inoculation and with Pep13 96 hours after inoculation.
In parallel experiments, the cells were either treated with 200 μM salicylic acid, 200 μM 4-chlorsalicylic acid or with 200 μM 3-hydroxy benzoic acid 72 hours after inoculation and then in all experiments 1 nM Pep13 was added 96 hours after inoculation.

Experiment [2] concerns Petroselinum crispum cells. As to the kind of experiment: Oxygen transfer rate (RAMOS) in suspension cells after treatment with a defense priming substance or elicitor alone. In kind it is cell-based. Particulars: 200 μM added 72 hours after inoculation; FIG. 1b. The text has this:
In the determination of the respiration activity with RAMOS, a measuring cycle is continuously repeated during fermentation. This measuring cycle comprises a measuring phase and a rinsing phase. During the rinsing phase, air is flushed through the measuring flask at a specific flow rate. At the beginning of the measuring phase, inlet and outlet valves of the measuring flask are closed. Respiration of the cells leads to a decrease in the oxygen partial pressure and to an increase in the carbon dioxide partial pressure in the gas headspace of the measuring flask. These partial pressures are monitored by an oxygen sensor and a differential pressure sensor. In addition, a carbon dioxide sensor may be used. Assuming linear changes in the measuring phase, a computer calculates the oxygen transfer rate and the carbon dioxide transfer rate according to the formulas provided above. […]
12.5 ml of a suspension of Petroselinum crispurn cells were inoculated in 250 ml shaking flasks containing 37.5 ml of modified Gamborg B5 medium and cultured at a temperature of 25° C. at a shaking frequency of 180 U/min and a shaking diameter of 5 cm in a RAMOS device (HiTec Zang, Herzogenrath). During the culture the oxygen partial pressure of the gas phase in the head space of the flask was measured and the oxygen transfer rate was calculated therefrom. […]

For the molecule `O=C(O)c1cccc(O)c1` [3-hydroxy benzoic acid], the “oxygen transfer rate in comparison to untreated cells and to cells only treated with Pep13 (specificity)” value (shortened to “oxygen transfer rate … (specificity)”) in experiment [1] is recorded as “same increase in the oxygen transfer rate as the addition of Pep13 alone”.
With `O=C(O)c1ccccc1O` [salicylic acid], in experiment [2], the “duration of the increase in oxygen transfer rate” value was “about 48 hours” and the “oxygen transfer rate in comparison to the untreated cells” value was “increase in the oxygen transfer rate”. In addition, the “oxygen transfer rate … (specificity)” value in experiment [1] is recorded as “increase in the oxygen transfer rate”. Besides, in experiment [1] (Pep13 96 hours after inoculation, FIG. 1d), the “oxygen transfer rate compared with treatment with Pep13 alone” value is on record as “stronger increase in the oxygen transfer rate than the treatment with Pep13 alone”.
For `O=C(O)c1ccc(Cl)cc1O` [4-chlorsalicylic acid], the “oxygen transfer rate … (specificity)” value in experiment [1] is recorded as “increase in the oxygen transfer rate”.
